For assay [1], the system named is MDA-MB-453. Kind of assay: drug sensitivity score (DSS), single agent (DSS (weighted AUC score)); higher = more sensitive (stronger viability decrease); extreme values may be limits of the assay. To be noted: BLU9931 0 nM; 72 h. The method, boiled down: (§1)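 Drug sensitivity scores come from a weighted area under a four-parameter logistic fit to percent viability, normalised per plate to control wells. Viability was based on cellular ATP read with CellTiterGlo 2.0 after 72 h at 37 °C, 5% CO2. Each 384-well plate carried FIMM Oncology set compounds in singlicate at five 10-fold dilutions, with 2000 MDA-MB-453 cells per well in medium with or without an FGFR4 inhibitor at 100 nM final.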

For assay [2], the system named is MDA-MB-453. Kind of assay: drug sensitivity score (DSS), in combination with BLU9931 (DSS (weighted AUC score)); higher = more sensitive (stronger viability decrease); extreme values may be limits of the assay. The conditions noted are these: BLU9931 100 nM; 72 h. The method, boiled down:
as §1

With `Cc1sc2c(c1C)C(c1ccc(Cl)cc1)=N[C@@H](CC(=O)NCCCCNC(=O)COc1cccc3c1C(=O)N(C1CCC(=O)NC1=O)C3=O)c1nnc(C)n1-2` (some centres not stated) [dBET1], the drug sensitivity score was found to be 12.2 with MDA-MB-453 [1] and 13.2 in the assay with MDA-MB-453 [2].

For the compound `C[C@H](Nc1ncnc2[nH]cnc12)c1cc2ccc(F)cc2nc1-c1ccccn1` [AMG319], the drug sensitivity score in the assay with MDA-MB-453 [1] was 1.1; with MDA-MB-453 [2] it was 0.3.

As to `CC1(C)OCCn2c1nc1c(N3CCOCC3)nc(-c3cnc(N)nc3)nc12` [GDC-0084], the drug sensitivity score with MDA-MB-453 [1] was 16.4; with MDA-MB-453 [2] it was 17.4.

Consider `C=C1C[C@@H]2CC[C@@]34C[C@H]5O[C@H]6[C@@H](O3)[C@H]3O[C@H](CC[C@@H]3O[C@H]6[C@H]5O4)CC(=O)C[C@@H]3[C@@H](OC)[C@@H](C[C@H](O)CN)O[C@H]3C[C@H]3O[C@@H](CC[C@@H]1O2)C[C@@H](C)C3=C` [Eribulin], for which the drug sensitivity score in the assay on MDA-MB-453 [1] stood at 15.5; in the assay with MDA-MB-453 [2], 13.4.

`CC(C)N(C[C@H]1O[C@@H](n2cnc3c(N)ncnc32)[C@H](O)[C@@H]1O)[C@H]1C[C@@H](CCc2nc3cc(C(C)(C)C)ccc3[nH]2)C1` [Pinometostat]: the drug sensitivity score with MDA-MB-453 [1] and with MDA-MB-453 [2] was 0 in each case.

On to `NC(=O)Nc1cc(-c2cccc(F)c2)sc1C(=O)N[C@H]1CCCNC1` [AZD7762], for which the drug sensitivity score in the assay with MDA-MB-453 [1] worked out at 5; with MDA-MB-453 [2], 4.

`CNS(=O)(=O)Nc1nccc(Cc2c(C)c3ccc(Oc4ncccn4)cc3oc2=O)c1F`: the drug sensitivity score with MDA-MB-453 [1] is 0.5; in the assay with MDA-MB-453 [2], 0.2.

For the compound `C[C@]12CC[C@H](O)CC1=CC[C@@H]1[C@@H]2CC[C@]2(C)C(c3cccnc3)=CC[C@@H]12` [Abiraterone], the drug sensitivity score with MDA-MB-453 [1] and in the assay with MDA-MB-453 [2] was 0 throughout.

As to `C=CC(=O)Nc1cc(Nc2nccc(-c3cn(C)c4ccccc34)n2)c(OC)cc1N(C)CCN(C)C` [Osimertinib], the figures for the drug sensitivity score with MDA-MB-453 [1] and in the assay with MDA-MB-453 [2] were 8 and 10.4, respectively.

For `COc1c(OCCCN2CCOCC2)ccc2c1N=C(NC(=O)c1cnc(N)nc1)N1CCN=C21` [Copanlisib], the drug sensitivity score in the assay on MDA-MB-453 [1] came out at 22.4; in the assay on MDA-MB-453 [2] it was 23.4.

For the compound `OC[C@H]1O[C@@H](n2cnc3c2N=CNC[C@H]3O)C[C@@H]1O` [Pentostatin], the drug sensitivity score in the assay with MDA-MB-453 [1] came out at 1; in the assay with MDA-MB-453 [2], 0.

On to `COc1cccc2c1C(=O)c1c(O)c3c(c(O)c1C2=O)C[C@@](O)(C(=O)CO)C[C@@H]3O[C@H]1C[C@H](N)[C@@H](O)[C@H](C)O1` [Epirubicin], for which the values for the drug sensitivity score in the assay with MDA-MB-453 [1] and in the assay with MDA-MB-453 [2] were 7.3 and 5.9, respectively.

`O=C(O)CC[C@H]1CC[C@@](c2cc(F)ccc2F)(S(=O)(=O)c2ccc(Cl)cc2)CC1` [MK-0752]: the results for the drug sensitivity score in the assay with MDA-MB-453 [1] and in the assay on MDA-MB-453 [2] were 0.1 and 0, respectively.

Regarding `Cc1ccc(C(=O)Nc2ccc(CN3CCN(C)CC3)c(C(F)(F)F)c2)cc1C#Cc1cnc2cccnn12` [Ponatinib], the drug sensitivity score in the assay on MDA-MB-453 [1] was 5.9; in the assay on MDA-MB-453 [2], 1.7.

In the case of `Nc1cc(F)ccc1NC(=O)/C=C/c1cnn(C/C=C/c2ccccc2)c1` [RGFP966], the drug sensitivity score in the assay on MDA-MB-453 [1] was 2.6; with MDA-MB-453 [2], 2.9.

In the case of `Cn1ncnc1[C@H]1c2n[nH]c(=O)c3cc(F)cc(c23)N[C@@H]1c1ccc(F)cc1` [Talazoparib], the drug sensitivity score in the assay with MDA-MB-453 [1] turned out to be 1.7; in the assay on MDA-MB-453 [2] it was 3.1.

For `O=C(O)c1ccc(-c2c[nH]c3ncc(-c4ccccc4)cc23)cc1C1CCCC1`, the drug sensitivity score in the assay with MDA-MB-453 [1] came out at 1.4; in the assay with MDA-MB-453 [2], 0.5.

`COc1cc2nccc(Oc3ccc(NC(=O)NC4CC4)c(Cl)c3)c2cc1C(N)=O` [Lenvatinib]: the drug sensitivity score with MDA-MB-453 [1] came out at 3.9; in the assay with MDA-MB-453 [2], 0.9.

With `Cc1cc([C@@H](C)Nc2ccccc2C(=O)O)c2nc(N3CCOCC3)cc(=O)n2c1` [AZD-6482], the values for the drug sensitivity score with MDA-MB-453 [1] and in the assay with MDA-MB-453 [2] were 7.5 and 7.4, respectively.

Take `Nc1nccc(-c2c(-c3ccc(F)cc3)ncn2C2CCCCC2)n1`: the values for the drug sensitivity score in the assay on MDA-MB-453 [1] and with MDA-MB-453 [2] were 1.1 and 0.6, respectively.

With `CCN(CC)CCNC(=O)c1c(C)[nH]c(/C=C2\C(=O)Nc3ccc(-c4csc(-c5ccccc5)n4)cc32)c1C` [Amcasertib], the drug sensitivity score in the assay on MDA-MB-453 [1] is 2.5; in the assay on MDA-MB-453 [2], 1.

Turning to `CCS(=O)(=O)Nc1ccc(Oc2ccc(F)cc2F)c(-c2cn(C)c(=O)c3[nH]ccc23)c1` [Mivebresib], the values for the drug sensitivity score with MDA-MB-453 [1] and with MDA-MB-453 [2] were 29.9 and 31.1, respectively.

Turning to `O=C(c1ccc(F)c(F)c1Nc1ccc(I)cc1F)N1CC(O)([C@@H]2CCCCN2)C1` [Cobimetinib], the drug sensitivity score with MDA-MB-453 [1] came out at 1.7; in the assay with MDA-MB-453 [2], 0.3.

For `Nc1nc(N)c2nc(-c3cccc(O)c3)c(-c3cccc(O)c3)nc2n1` [TG100-115], the drug sensitivity score in the assay with MDA-MB-453 [1] came to 5.1; in the assay on MDA-MB-453 [2], 5.9.

With `CNC(=O)c1cc(COc2nnc(Nc3ccc(Cl)cc3)c3ccoc23)ccn1` [Telatinib], the drug sensitivity score with MDA-MB-453 [1] was found to be 1.2; with MDA-MB-453 [2], 0.

Regarding `Nc1ccccc1NC(=O)c1ccc(CNC(=O)OCc2cccnc2)cc1` [Entinostat], the drug sensitivity score was found to be 9.2 with MDA-MB-453 [1] and 8.7 in the assay on MDA-MB-453 [2].

Regarding `N#CCNC(=O)c1ccc(-c2ccnc(Nc3ccc(N4CCOCC4)cc3)n2)cc1` [Momelotinib], the drug sensitivity score in the assay with MDA-MB-453 [1] is 4.7; in the assay with MDA-MB-453 [2], 2.2.

With `COc1cc2ncnc(Nc3ccc(F)c(Cl)c3)c2cc1OCCCN1CCOCC1` [Gefitinib], the results for the drug sensitivity score in the assay with MDA-MB-453 [1] and in the assay with MDA-MB-453 [2] were 6.9 and 8, respectively.

In the case of `Cn1c(=O)n(-c2ccc(C(C)(C)C#N)cc2)c2c3cc(-c4cnc5ccccc5c4)ccc3ncc21` [Dactolisib], the results for the drug sensitivity score in the assay on MDA-MB-453 [1] and in the assay with MDA-MB-453 [2] were 16.3 and 18.3, respectively.

Consider `COc1cc(OC)c(/C=C/S(=O)(=O)Cc2ccc(OC)c(NCC(=O)O)c2)c(OC)c1` [Rigosertib], for which the drug sensitivity score was 17.6 in the assay with MDA-MB-453 [1] and 16.2 in the assay on MDA-MB-453 [2].

For `CC[C@@](C)(Nc1ccnc(-c2c[nH]c3ncccc23)n1)C(=O)NCC(F)(F)F` [Decernotinib], the drug sensitivity score with MDA-MB-453 [1] and in the assay on MDA-MB-453 [2] was 0 in each case.

Take `COc1cc2c(N3CCN(C(=O)Nc4ccc(OC(C)C)cc4)CC3)ncnc2cc1OCCCN1CCCCC1` [Tandutinib]: the drug sensitivity score with MDA-MB-453 [1] and with MDA-MB-453 [2] was 0 throughout.

Take `COc1c(C)cnc(Cn2cnc3c(Cl)nc(N)nc32)c1C` [BIIB021]: the results for the drug sensitivity score in the assay on MDA-MB-453 [1] and in the assay on MDA-MB-453 [2] were 19.5 and 20.1, respectively.

Consider `CO[C@H]1CC[C@H](N2C(=O)CNc3ncc(-c4ccc(C(C)(C)O)nc4)nc32)CC1` [CC-223], for which the drug sensitivity score with MDA-MB-453 [1] was found to be 6.1; in the assay on MDA-MB-453 [2], 6.

Take `CC(C)C[C@H](NC(=O)[C@@H](COC(C)(C)C)NC(=O)[C@H](Cc1ccc(O)cc1)NC(=O)[C@H](CO)NC(=O)[C@H](Cc1c[nH]c2ccccc12)NC(=O)[C@H](Cc1cnc[nH]1)NC(=O)[C@@H]1CCC(=O)N1)C(=O)N[C@@H](CCCNC(=N)N)C(=O)N1CCC[C@H]1C(=O)NNC(N)=O` [Goserelin]: the drug sensitivity score in the assay with MDA-MB-453 [1] and with MDA-MB-453 [2] was 0 each time.

On to `CN(c1ncccc1CNc1nc(Nc2ccc3c(c2)CC(=O)N3)ncc1C(F)(F)F)S(C)(=O)=O`, for which the drug sensitivity score with MDA-MB-453 [1] and in the assay with MDA-MB-453 [2] was 3.9 each time.

The values above are taken from the supplement of paper PMC7224384.
